In PMC10252594 (Cancers, 2023):
Marks after values point to notes of the source that are not given here.

How the values were obtained:
LAPC-4 cells [1] = assay: Gene expression study by qPCR; format: cell-based, human; settings: RM-581 5 µM or atorvastatin 10 µM, CTL fixed at 1.0
Method: LAPC-4 cells (3 × 10^5) were treated with RM-581 (1, 2, and 5 µM) at different times (6, 18, 24, and 36 h) and the expression of various genes was determined as previously reported. Primer sequences used for the analysis of each gene are reported in Table S3 (Supplementary Materials).

LAPC-4 cells [2] = assay: Total cholesterol in LAPC-4 cells (kit); format: cell-based, human; settings: 18, 36, or 72 h; RM-581 2 μM or atorvastatin 10 μM
Method: A cholesterol quantification kit provided by Sigma-Aldrich (Catalog Number MAK043) was used following the manufacturer’s instructions to determine the concentration of total cholesterol, free cholesterol, and cholesteryl ester in samples. The cholesterol contents were measured in samples from two different protocols. […] Secondly, in tumor, liver, and plasma obtained at the end of the LAPC-4 xenograft experiment (control group and the group treated with RM-581 at 10 mg/kg/PO).

LAPC-4 cells [3] = assay: LAPC-4 cell viability proliferation and combination index assays (MTS, 6 days); format: cell-based, human; settings: LAPC-4, six days
Method: LAPC-4 cells (1 × 10^4 cells/well) were seeded in triplicate in 96-well plates in IMDM (Iscove’s modified Dulbecco’s medium) (90 μL) supplemented (v/v) with 5% fetal FBS, 1% L-glutamine, 1% insulin, and 1% penicillin/streptomycin. The cells were incubated at 37 °C in a 5% CO2 humidified atmosphere for 24 h. […] After 6 days of incubation, the cell proliferation was determined by adding 10 µL of MTS followed by incubation at 37 °C for 4 h. Plates were then analyzed at 490 nm using a Tecan M-200 microplate reader (Männedorf, Switzerland). Using GraphPad Prism 7 software, the IC50 values were calculated. The values represent the average of two independent experiments performed in triplicate. According to the Chou–Talalay method and using the following formula, the CI (combination) was calculated. CI=(D)1/(DX)1+(D)2/(DX)2
Denominators (DX)l and (DX)2 are the doses of individual drugs required to achieve a given effect level, and numerators (D)1 and (D)2 are the concentrations of each drug present in combination to trigger the same effect level. When the drugs interact additively, CI = 1, but a CI < 1 indicates a synergistic interaction, and a CI > 1 indicates an antagonistic effect.

LAPC-4 xenografts = test system: LAPC-4 xenografts
Text: The xenograft experiment was approved by the Université Laval Animal Care Committee (Comité de Protection des Animaux de l’Université Laval, Québec, QC, Canada) and carried out in an animal facility approved by the Canadian Council on Animal Care (CCAC). Homozygous male Balb/c athymic nude mice (~42 days old, weighing approximately 28 g) were obtained from Charles River Inc. (Saint-Constant, QC, Canada) and housed (4 to 5) in vinyl micro-isolated ventilated cages equipped with air lids. Cages were kept in laminar airflow hoods and maintained in pathogen-limiting conditions. The animals were housed under a controlled environment at 22 ± 3 °C with 50 ± 20% relative humidity and light set at 12 h/day (light on at 07:15) during the acclimatization and study periods. Sterile water and rodent food (Rodent Diet #T.2018.15, Harlan Teklad, Madison, WI, USA) were provided ad libitum.
After an acclimatization period of 5 days, the mice were inoculated into both flanks by subcutaneous (SC) injection of 4 × 10^6 LAPC-4 cells (Passage 14) in 0.1 mL of growth medium containing 50% Matrigel (BD Biosciences, Mississauga, ON, Canada) via a 2.5-cm long 22-gauge needle. Two weeks later, mice that developed tumors were randomized according to tumor volume, divided into […] groups (Gr-1 to Gr-8), and treated over a period of 28 days. A bilateral orchiectomy was performed under isoflurane-induced anesthesia for Gr-1 but not for Gr-2 to Gr-8. Both Gr-1 (CTX control (CTL), 9 mice, 16 tumors) and Gr-2 (intact CTL, 9 mice, 18 tumors) were treated with 0.1 mL of the vehicle alone (8% DMSO/92% propylene glycol (PG) administered by gavage (PO). Gr-3 (30 mg/kg/PO, 10 mice, 19 tumors) received 0.843 mg of RM-581. Gr-4 (10 mg/kg/PO, 10 mice, 20 tumors) received 0.281 mg of RM-581. Gr-5 (3 mg/kg/PO, 10 mice, 18 tumors) received 0.084 mg of RM-581. Gr-6 (60 mg/kg/SC, 9 mice, 18 tumors) received 1.686 mg of abiraterone. Gr-7 (60 mg/kg/PO, 9 mice, 17 tumors) received 1.686 mg of abiraterone acetate. Gr-8 (4 mg/kg/IP, 9 mice, 17 tumors) received 0.112 mg of docetaxel.
RM-581 and abiraterone acetate were administered six days a week PO; abiraterone was administered six days a week SC; and docetaxel was administered twice a week by intraperitoneal (IP) injection. RM-581 was first dissolved in DMSO, and thereafter we added PG to obtain the appropriate concentration in the vehicle fluid (8% DMSO/92% PG). Abiraterone acetate and abiraterone were dissolved in 0.3% hydroxypropyl cellulose in saline (0.9% NaCl), while docetaxel was first dissolved in DMSO, and thereafter we added phosphate-buffered saline (PBS) to obtain the proper concentration in the carrier fluid (0.5% DMSO/99.5% PBS). All solutions were prepared one day prior to the initiation of treatment and stored at 4 °C under constant agitation.
The mice were weighed at the start and end of the protocol. Tumor area (mm^2) was calculated twice a week using two perpendicular diameters (L and W), which were recorded using a caliper, and the formula L/2 × W/2 × π. The area measured on the first day of treatment was fixed at 100%. At the end of the studies and 3 h after the last treatment, the mice were terminally anesthetized, and their final body weights were measured. Tumors, liver, kidney, and total prostate were collected from mice during necropsy, while blood was collected by cardiac puncture. Tissues and plasma were immediately frozen at −80 °C until analysis.

PC-3 xenograft = test system: PC-3 xenograft; set-up: method as in PMID 34681843; settings: PC-3 xenograft, 4 mg/kg IP; cited from earlier work
PC-3 (AR−) cells = test system: PC-3 (AR−) cells; set-up: method as in earlier work; settings: ref 52 Furuya et al.; cited from earlier work
LNCaP (AR+) cells = test system: LNCaP (AR+) cells; set-up: method as in earlier work; settings: ref 52 Furuya et al.; cited from earlier work
[4] = test system: androgen-dependent and androgen-independent PC cell lines; settings: cited from earlier work

CC(C)c1c(C(=O)Nc2ccccc2)c(-c2ccccc2)c(-c2ccc(F)cc2)n1CC[C@@H](O)C[C@@H](O)CC(=O)O [atorvastatin, reference compound]
ACAT1 mRNA expression (LAPC-4 cells [1]; 6 h): 1.0
ACLY mRNA expression (LAPC-4 cells [1]; 6 h): 1.0
FASN mRNA expression (LAPC-4 cells [1]; 6 h): 1.2
HMGCR mRNA expression (LAPC-4 cells [1]; 6 h): 1.4 *
HMGCS1 mRNA expression (LAPC-4 cells [1]; 6 h): 1.3
LDLR mRNA expression (LAPC-4 cells [1]; 6 h): 1.0
MVD mRNA expression (LAPC-4 cells [1]; 6 h): 1.6 *
MVK mRNA expression (LAPC-4 cells [1]; 6 h): 1.5
SCD1 mRNA expression (LAPC-4 cells [1]; 6 h): 1.4
ACAT1 mRNA expression (LAPC-4 cells [1]; 18 h): 1.0
ACLY mRNA expression (LAPC-4 cells [1]; 18 h): 1.2
FASN mRNA expression (LAPC-4 cells [1]; 18 h): 1.3
HMGCR mRNA expression (LAPC-4 cells [1]; 18 h): 1.8 *
HMGCS1 mRNA expression (LAPC-4 cells [1]; 18 h): 3.5 *
LDLR mRNA expression (LAPC-4 cells [1]; 18 h): 1.8 *
MVD mRNA expression (LAPC-4 cells [1]; 18 h): 2.6 *
MVK mRNA expression (LAPC-4 cells [1]; 18 h): 2.0 *
SCD1 mRNA expression (LAPC-4 cells [1]; 18 h): 1.6 *
ACAT1 mRNA expression (LAPC-4 cells [1]; 24 h): 1.0
ACLY mRNA expression (LAPC-4 cells [1]; 24 h): 1.9 *
FASN mRNA expression (LAPC-4 cells [1]; 24 h): 1.7 *
HMGCR mRNA expression (LAPC-4 cells [1]; 24 h): 2.6 *
HMGCS1 mRNA expression (LAPC-4 cells [1]; 24 h): 2.7 *
LDLR mRNA expression (LAPC-4 cells [1]; 24 h): 1.8 *
MVD mRNA expression (LAPC-4 cells [1]; 24 h): 3.5 *
MVK mRNA expression (LAPC-4 cells [1]; 24 h): 2.5 *
SCD1 mRNA expression (LAPC-4 cells [1]; 24 h): 2.6 *
ACAT1 mRNA expression (LAPC-4 cells [1]; 36 h): 1.1
ACLY mRNA expression (LAPC-4 cells [1]; 36 h): 2.2 *
FASN mRNA expression (LAPC-4 cells [1]; 36 h): 1.8 *
HMGCR mRNA expression (LAPC-4 cells [1]; 36 h): 3.5 *
HMGCS1 mRNA expression (LAPC-4 cells [1]; 36 h): 2.0 *
LDLR mRNA expression (LAPC-4 cells [1]; 36 h): 2.5 *
MVD mRNA expression (LAPC-4 cells [1]; 36 h): 4.0 *
MVK mRNA expression (LAPC-4 cells [1]; 36 h): 2.5 *
SCD1 mRNA expression (LAPC-4 cells [1]; 36 h): 4.5 *
Total cholesterol in LAPC-4 cells vs untreated cells (LAPC-4 cells [2]): did not show a significant difference

C[C@]12CC[C@H](O)CC1=CC[C@@H]1[C@@H]2CC[C@]2(C)C(c3cccnc3)=CC[C@@H]12 [abiraterone, reference compound]
IC50 (LAPC-4 cells [3]; Homo sapiens, LAPC4, 144 h, single drugs and 1:1 combinations, read-out: IC50 (Figure 2B)): 11.5 µM
day of significantly different effect vs intact control (LAPC-4 xenografts; 60 mg/kg SC): 18 days
tumor reduction compared to intact control group (LAPC-4 xenografts; 60 mg/kg SC, 6 days a week, day 28): 40%

CC(=O)O[C@@]12CO[C@@H]1C[C@H](O)[C@@]1(C)C(=O)[C@H](O)C3=C(C)[C@@H](OC(=O)[C@H](O)[C@@H](NC(=O)OC(C)(C)C)c4ccccc4)C[C@@](O)([C@@H](OC(=O)c4ccccc4)[C@H]21)C3(C)C [docetaxel, reference compound]
block of tumor growth (PC-3 xenograft): 35%
cell growth plateau (LAPC-4 cells [3]; between 0.01 and 10 µM): around 25%
effect on tumor growth (LAPC-4 xenografts; 4 mg/kg IP twice a week): no significant effect

CCC(C)(C)C(=O)O[C@H]1C[C@@H](C)C=C2C=C[C@H](C)[C@H](CC[C@@H]3C[C@@H](O)CC(=O)O3)[C@H]21 [simvastatin]
LDLR expression (PC-3 (AR−) cells): decreased
intracellular cholesterol ratio (PC-3 (AR−) cells): decreased
LDLR expression (LNCaP (AR+) cells): increased
intracellular cholesterol ratio (LNCaP (AR+) cells): without affecting

CC(=O)O[C@H]1CC[C@@]2(C)C(=CC[C@@H]3[C@@H]2CC[C@]2(C)C(c4cccnc4)=CC[C@@H]32)C1 [abiraterone acetate, reference compound]
effect on tumor compared to intact group (LAPC-4 xenografts; 60 mg/kg PO, day 28): no longer significant
IC50 [4]: > 10 µM
